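Protocol summary: plate cells (96-well), add compound at 5 concentrations, incubate 48 h, interpolate endpoints linearly. At the GI50, growth is halved. TGI denotes the concentration required for complete inhibition of growth.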
How the values were obtained:
Experiment in all cases: inhibition of tumour cell growth, NCI panel, 48 h
COLO 205 colon = test system: COLO 205 colon
SK-MEL-2 melanoma = test system: SK-MEL-2 melanoma
OVCAR-4 ovarian = test system: OVCAR-4 ovarian
MALME-3M melanoma = test system: MALME-3M melanoma
IGROV1 ovarian = test system: IGROV1 ovarian
HCT-116 colon = test system: HCT-116 colon
RXF 393 renal = test system: RXF 393 renal
HL-60(TB) leukemia = test system: HL-60(TB) leukemia
NCI/ADR-RES ovarian = test system: NCI/ADR-RES ovarian
MCF7 breast = test system: MCF7 breast

Structure (SMILES)	TGI (COLO 205 colon)	TGI (SK-MEL-2 melanoma)	TGI (OVCAR-4 ovarian)	TGI (MALME-3M melanoma)	TGI (IGROV1 ovarian)	TGI (HCT-116 colon)	TGI (RXF 393 renal)	TGI (HL-60(TB) leukemia)	GI50 (COLO 205 colon)	GI50 (SK-MEL-2 melanoma)	GI50 (OVCAR-4 ovarian)	GI50 (NCI/ADR-RES ovarian)	TGI (NCI/ADR-RES ovarian)	GI50 (MCF7 breast)	TGI (MCF7 breast)	GI50 (MALME-3M melanoma)	GI50 (IGROV1 ovarian)	GI50 (HCT-116 colon)	GI50 (RXF 393 renal)	GI50 (HL-60(TB) leukemia)
O=c1nc(-c2ccccc2)scc1-c1ccccc1	> 100 µM	> 100 µM	> 100 µM	> 100 µM	> 100 µM	> 100 µM	> 100 µM	> 100 µM	–	–	–	–	–	–	–	–	–	–	–	–
CCCC(=O)Nc1ncnc2c1ncn2C1OC2COP(=O)(O)OC2C1OC(=O)CCC (stereo not given)	> 1000 µM	> 1000 µM	> 1000 µM	> 1000 µM	–	> 1000 µM	–	> 1000 µM	> 1000 µM	> 1000 µM	> 1000 µM	> 1000 µM	> 1000 µM	> 1000 µM	> 1000 µM	> 1000 µM	> 1000 µM	> 1000 µM	–	–
CCCCCCCCCCCCCC(=O)OC1C(CO)OC(=O)C1O (stereo not given)	> 100 µM	> 100 µM	> 100 µM	> 100 µM	> 100 µM	> 100 µM	> 100 µM	> 100 µM	–	–	–	–	–	–	–	–	–	–	–	–
Cc1cc(O)c(O)c(Oc2cc(C)cc(O)c2O)c1	36.4 µM	> 100 µM	28.8 µM	–	69.6 µM	41.1 µM	88.2 µM	5.54 µM	–	–	–	–	–	–	29.3 µM	–	–	–	–	–
CNc1ccc(C(=O)CC(O)CCC(C)C2OC(=O)CC(O)CC(=O)CC(O)CC(O)CC(O)CC(O)CC3(O)CC(O)C(C(=O)NCCc4ccccn4)C(CC(OC4OC(C)C(O)C(N)C4O)/C=C/C=C/C=C/C=C\C=C/C=C/C=C/C2C)O3)cc1 (stereo not given)	> 50 µM	> 50 µM	> 50 µM	0.144 µM	> 50 µM	> 50 µM	30.4 µM	30.2 µM	1.63 µM	–	0.868 µM	–	–	1.25 µM	10.4 µM	0.0398 µM	–	0.741 µM	1.05 µM	5.01 µM
O=C(CC(=O)c1cccc([N+](=O)[O-])c1)C(=O)Nc1nc([N+](=O)[O-])cs1	> 100 µM	> 100 µM	> 100 µM	> 100 µM	> 100 µM	> 100 µM	> 100 µM	> 100 µM	–	–	–	–	–	–	–	–	–	–	–	–
O=C1C(Cl)=C(Nc2cccc(O)c2)C(=O)N1c1ccc(Cl)cc1Cl	> 100 µM	72.5 µM	> 100 µM	92 µM	51.5 µM	97.6 µM	67.3 µM	–	28.2 µM	35 µM	43.2 µM	32.2 µM	> 100 µM	19.8 µM	63.3 µM	31.6 µM	22.5 µM	24.3 µM	17 µM	–
COc1ccc(C(=O)c2cc(OC)c(OC)c(OC)c2)cc1/C=C/C(=O)c1ccc2c(c1)OCO2	> 100 µM	7.47 µM	> 100 µM	6.61 µM	14.1 µM	–	4.21 µM	> 100 µM	3.51 µM	2.81 µM	5.05 µM	1.46 µM	15.2 µM	0.381 µM	> 100 µM	2.38 µM	3.52 µM	–	1.94 µM	2.16 µM
CNC(=O)OCc1cc2ccncc2c2c1[nH]c1ccccc12	> 100 µM	> 100 µM	> 100 µM	> 100 µM	> 100 µM	> 100 µM	8.39 µM	> 100 µM	–	–	–	–	–	–	–	–	–	–	–	–
CCC[CH2][Ge]([CH2]CCC)([CH2]CCC)[O]C(=O)C(OC(C)=O)c1ccccc1 (stereo not given)	20.9 µM	19.5 µM	20.2 µM	19.4 µM	25.8 µM	13.4 µM	1.44 µM	2.09 µM	6.37 µM	3.17 µM	0.166 µM	–	–	–	–	1.16 µM	11.2 µM	0.139 µM	0.102 µM	0.314 µM
COc1ccc2cc(C(=O)/C=C/c3ccco3)ccc2c1	> 100 µM	59.1 µM	> 100 µM	> 100 µM	> 100 µM	35.6 µM	38.7 µM	83.3 µM	51.2 µM	21.6 µM	64.3 µM	23.8 µM	63.8 µM	–	–	31 µM	30.3 µM	1.29 µM	15.9 µM	24.6 µM
Cc1cc2c(=O)c3ccccc3oc2c(C#N)c1C	> 100 µM	–	> 100 µM	> 100 µM	> 100 µM	> 100 µM	> 100 µM	> 100 µM	–	–	–	–	> 100 µM	–	> 100 µM	–	–	–	–	–
N#C/C(=C\c1ccc([N+](=O)[O-])s1)c1nc2cc(Br)ccc2s1	0.844 µM	0.672 µM	–	0.291 µM	1.14 µM	0.388 µM	2.06 µM	> 100 µM	0.269 µM	0.236 µM	–	0.276 µM	0.827 µM	0.305 µM	–	0.134 µM	0.254 µM	0.0713 µM	0.325 µM	3.82 µM
COc1cc(CCNc2nc3cc(N)cc(N)c3nc2-c2ccccc2)cc(OC)c1	3.56 µM	3.92 µM	2.54 µM	2.53 µM	7.98 µM	–	4.8 µM	3.33 µM	1.76 µM	1.92 µM	1.21 µM	2.61 µM	6.3 µM	1.71 µM	3.89 µM	1.18 µM	2.52 µM	–	1.59 µM	1.25 µM
CCCN(CCC)c1ccc(/C=N/NC(=O)c2cccnc2)cc1	> 100 µM	–	> 100 µM	> 100 µM	> 100 µM	> 100 µM	42.1 µM	63.7 µM	31.5 µM	–	35.4 µM	18 µM	> 100 µM	20.2 µM	> 100 µM	41.8 µM	46.8 µM	23.5 µM	19.2 µM	22.6 µM
COc1cc([N+](=O)[O-])c(OC)cc1-c1nc2n(c1/C(N)=N/C(=N)N)CCS2	> 100 µM	–	> 100 µM	60.6 µM	> 100 µM	> 100 µM	> 100 µM	> 100 µM	> 100 µM	–	44 µM	> 100 µM	> 100 µM	> 100 µM	> 100 µM	18.7 µM	17.7 µM	20.8 µM	42.2 µM	> 100 µM
C/C=C/C=C\C(=O)C1c2cccc(O)c2C(=O)c2c(O)cc(C)cc21 (stereo not given)	2.99 µM	2.2 µM	3.3 µM	3.12 µM	2.91 µM	2.92 µM	2.81 µM	7.04 µM	–	–	–	–	–	–	–	–	–	–	–	–
